Measured values taken from the supplement of paper PMC10627819.

Assays:
B. subtilis 168 [1] = assay: fitness (endpoint OD595 vs no drug) (fraction); higher = more growth
Method in brief: (§1)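 Plates with 384 wells were inoculated at OD595 0.01 using 30 µl of TSB, LB Lennox or CY, or 55 µl for S. pneumoniae. Incubation was at 37 °C, with OD595 measured every 30 min for 14 h. Fitness is the stationary-phase transition optical density over the robust mean of no-drug control wells, after first-reading background subtraction; it is capped at 1.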

S. aureus Newman [2] = assay: as above
Method in brief: as §1

S. pneumoniae D39V [3] = assay: as above
Method in brief: as §1

B. subtilis 168 [4] = assay: Bliss interaction score (quartile over a dose matrix) (fitness difference); higher = more antagonism (negative = synergy)
Method in brief: (§2)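 At entry into stationary phase, OD595 was recorded and divided by the robust mean of the no-drug wells on that plate, with any value above 1 set to 1. This gives the fitness measure used throughout. Single-drug fitness was inferred from combination data, and the Bliss score, observed minus product-expected fitness, is shown as quartiles across technical, biological and donor/recipient replicates.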

S. aureus DSM 20231 = assay: as above
Method in brief: as §2

S. aureus Newman [5] = assay: as above
Method in brief: as §2

S. pneumoniae D39V [6] = assay: as above
Method in brief: as §2
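Wherever Bliss interaction score (quartile over a dose matrix) is given: first quartile when negative (synergy) and third quartile when positive (antagonism).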

O=C(O)c1cn(C2CC2)c2cc(N3CCNCC3)c(F)cc2c1=O [Ciprofloxacin] + CN1C2=CC=CC=C2N=C3C1=CC=CC3=O [Pyocyanin]
Details	fitness
B. subtilis 168 [1], first compound 0.0098 µg/mL, partner 1.25 µg/mL	0.911
B. subtilis 168 [1], first compound 0.0098 µg/mL, partner 2.5 µg/mL	0.809
B. subtilis 168 [1], first compound 0.0098 µg/mL, partner 5 µg/mL	0.814
B. subtilis 168 [1], first compound 0.0195 µg/mL, partner 2.5 µg/mL	0.703
B. subtilis 168 [1], first compound 0.0195 µg/mL, partner 5 µg/mL	0.649
S. aureus Newman [2], first compound 0.0375 µg/mL, partner 1.25 µg/mL	0.601
S. aureus Newman [2], first compound 0.0375 µg/mL, partner 2.5 µg/mL	0.574
S. aureus Newman [2], first compound 0.0375 µg/mL, partner 5 µg/mL	0.38
S. aureus Newman [2], first compound 0.075 µg/mL, partner 1.25 µg/mL	0.578
S. aureus Newman [2], first compound 0.075 µg/mL, partner 2.5 µg/mL	0.533
S. aureus Newman [2], first compound 0.075 µg/mL, partner 5 µg/mL	0.26
S. aureus Newman [2], first compound 0.15 µg/mL, partner 1.25 µg/mL	0.0395
S. aureus Newman [2], first compound 0.15 µg/mL, partner 2.5 µg/mL	0.0384
S. aureus Newman [2], first compound 0.15 µg/mL, partner 5 µg/mL	0.0694
S. pneumoniae D39V [3], first compound 0.125 µg/mL, partner 0.325 µg/mL	0.989
S. pneumoniae D39V [3], first compound 0.125 µg/mL, partner 0.65 µg/mL	0.966
S. pneumoniae D39V [3], first compound 0.125 µg/mL, partner 1.3 µg/mL	0.755
S. pneumoniae D39V [3], first compound 0.25 µg/mL, partner 0.325 µg/mL	0.924
S. pneumoniae D39V [3], first compound 0.25 µg/mL, partner 0.65 µg/mL	0.92

Details	fitness
S. pneumoniae D39V [3], first compound 0.25 µg/mL, partner 1.3 µg/mL, one replicate	0.54

Details	Bliss interaction score
B. subtilis 168 [4]	0.104
S. aureus DSM 20231	0.0671
S. aureus Newman [5]	-0.0511
S. pneumoniae D39V [6]	0.0709

O=C(O)c1cn(C2CC2)c2cc(N3CCNCC3)c(F)cc2c1=O [Ciprofloxacin] + CN(C)c1cc(NC(=O)CNC(C)(C)C)c(O)c2c1C[C@H]1C[C@H]3[C@H](N(C)C)C(O)=C(C(N)=O)C(=O)[C@@]3(O)C(O)=C1C2=O [Tigecycline]
Details	fitness
B. subtilis 168 [1], first compound 0.0098 µg/mL, partner 0.039 µg/mL	0.919
B. subtilis 168 [1], first compound 0.0098 µg/mL, partner 0.078 µg/mL	0.889
B. subtilis 168 [1], first compound 0.0098 µg/mL, partner 0.156 µg/mL	0.821
B. subtilis 168 [1], first compound 0.0195 µg/mL, partner 0.039 µg/mL	0.758
B. subtilis 168 [1], first compound 0.0195 µg/mL, partner 0.078 µg/mL	0.697
B. subtilis 168 [1], first compound 0.0195 µg/mL, partner 0.156 µg/mL	0.713
S. aureus Newman [2], first compound 0.0375 µg/mL, partner 0.078 µg/mL	0.735
S. aureus Newman [2], first compound 0.0375 µg/mL, partner 0.156 µg/mL	0.735
S. aureus Newman [2], first compound 0.075 µg/mL, partner 0.039 µg/mL	0.656
S. aureus Newman [2], first compound 0.075 µg/mL, partner 0.078 µg/mL	0.698
S. aureus Newman [2], first compound 0.075 µg/mL, partner 0.156 µg/mL	0.683
S. aureus Newman [2], first compound 0.15 µg/mL, partner 0.039 µg/mL	0.0882
S. aureus Newman [2], first compound 0.15 µg/mL, partner 0.078 µg/mL	0.045
S. aureus Newman [2], first compound 0.15 µg/mL, partner 0.156 µg/mL	0.07
S. pneumoniae D39V [3], first compound 0.125 µg/mL, partner 0.325 µg/mL	0.944
S. pneumoniae D39V [3], first compound 0.125 µg/mL, partner 0.65 µg/mL	0.895
S. pneumoniae D39V [3], first compound 0.125 µg/mL, partner 1.3 µg/mL	0.945
S. pneumoniae D39V [3], first compound 0.125 µg/mL, partner 2.6 µg/mL	0.856
S. pneumoniae D39V [3], first compound 0.25 µg/mL, partner 0.65 µg/mL	0.795
S. pneumoniae D39V [3], first compound 0.25 µg/mL, partner 1.3 µg/mL	0.83
S. pneumoniae D39V [3], first compound 0.25 µg/mL, partner 2.6 µg/mL	0.767
S. pneumoniae D39V [3], first compound 0.5 µg/mL, partner 2.6 µg/mL	0.588

fitness, one replicate
Details	first compound 0.0098 µg/mL	first compound 0.0195 µg/mL	first compound 0.039 µg/mL	first compound 0.25 µg/mL
B. subtilis 168 [1], partner 0.125 µg/mL	≥ 1	0.964	0.709	–
B. subtilis 168 [1], partner 0.25 µg/mL	0.868	0.849	0.335	–
B. subtilis 168 [1], partner 0.5 µg/mL	0.901	0.828	0.313	–
S. pneumoniae D39V [3], partner 0.325 µg/mL	–	–	–	0.834

Details	Bliss interaction score
B. subtilis 168 [4]	-0.0691
S. aureus DSM 20231	0.0365
S. aureus Newman [5]	-0.0448
S. pneumoniae D39V [6]	-0.0751
